# Measurements: ChEMBL document CHEMBL5584307, “Discovery of a Potent and Orally Bioavailable Xanthine Oxidase/Urate Transporter 1 Dual Inhibitor as a Potential Treatment for Hyperuricemia and Gout” (J Med Chem, 2024)
# Legend:
# [1] = target: T1, Xanthine dehydrogenase/oxidase (Homo sapiens, UniProt P47989); experiment: Inhibition of xanthine oxidase (unknown origin) by absorbance based assay
# [2] = target: T2, Solute carrier family 22 member 12 (Homo sapiens, UniProt Q96S37); experiment: Inhibition of URAT1 (unknown origin) by absorbance based assay
# T2 sequence (Q96S37 whole entry): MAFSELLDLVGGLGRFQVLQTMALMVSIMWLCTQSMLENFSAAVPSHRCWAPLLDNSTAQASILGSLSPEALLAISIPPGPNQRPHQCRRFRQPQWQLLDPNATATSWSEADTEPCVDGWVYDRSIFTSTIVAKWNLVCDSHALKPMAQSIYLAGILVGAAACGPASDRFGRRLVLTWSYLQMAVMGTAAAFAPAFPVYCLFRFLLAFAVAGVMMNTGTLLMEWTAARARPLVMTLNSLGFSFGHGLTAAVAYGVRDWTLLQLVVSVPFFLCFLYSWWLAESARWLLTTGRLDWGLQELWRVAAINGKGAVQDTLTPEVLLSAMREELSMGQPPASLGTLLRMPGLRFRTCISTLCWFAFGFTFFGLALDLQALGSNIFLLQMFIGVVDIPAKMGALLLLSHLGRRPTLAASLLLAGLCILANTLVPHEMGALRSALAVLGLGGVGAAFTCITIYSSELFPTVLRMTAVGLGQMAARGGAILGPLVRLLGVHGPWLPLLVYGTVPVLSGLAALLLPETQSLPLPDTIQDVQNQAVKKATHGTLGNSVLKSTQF
# [3] = target: T1, Xanthine dehydrogenase/oxidase; experiment: Inhibition of xanthine oxidase (unknown origin) at 10 uM by absorbance based assay
# [4] = system: Sapajus apella; experiment: Urate lowering effect in Tufted capuchin monkey assessed as fraction excretion of uric acid at 30 mg/kg/day, po qd for 3 days consecutively relative to control; format: functional; conditions: time 3 day
# [5] = system: Sapajus apella; conditions: dose 30.0 mg/kg/day, route po, time 3.0 day
# [6] = target: T2, Solute carrier family 22 member 12; experiment: Inhibition of URAT1 (unknown origin) at 10 uM by absorbance based assay
# [7] = system: Sapajus apella; experiment: Urate lowering effect in Tufted capuchin monkey assessed as serum xanthine level at 2 mg/kg/day, po qd for 3 days consecutively; format: functional; conditions: time 3 day
# [8] = system: Sapajus apella; experiment: Urate lowering effect in Tufted capuchin monkey assessed as urine xanthine level at 2 mg/kg/day, po qd for 3 days consecutively; format: functional; conditions: time 3 day
# [9] = system: Sapajus apella; conditions: dose 2.0 mg/kg/day, route po, time 3.0 day
# [10] = Half life in overnight-fasted Sprague-Dawley rat at 5 mg/kg, po measured upto 24 hrs by LC-MS/MS analysis; format: ADME, organism-based; conditions: in vivo
# [11] = Cmax in overnight-fasted Sprague-Dawley rat at 5 mg/kg, po measured upto 24 hrs by LC-MS/MS analysis; format: ADME, organism-based; conditions: in vivo
# [12] = AUC (last) in overnight-fasted Sprague-Dawley rat at 5 mg/kg, po measured upto 24 hrs by LC-MS/MS analysis; format: ADME, organism-based; conditions: in vivo
# [13] = AUC (last) in overnight-fasted Sprague-Dawley rat at 1 mg/kg, iv measured upto 24 hrs by LC-MS/MS analysis; format: ADME, organism-based; conditions: in vivo
# [14] = Clearance in overnight-fasted Sprague-Dawley rat at 1 mg/kg, iv measured upto 24 hrs by LC-MS/MS analysis; format: ADME, organism-based; conditions: in vivo
# [15] = Volume of distribution at steady state in overnight-fasted Sprague-Dawley rat at 5 mg/kg, po or 1 mg/kg, iv measured upto 24 hrs by LC-MS/MS analysis; format: ADME, organism-based; conditions: in vivo
# [16] = Oral bioavailability in overnight-fasted Sprague-Dawley rat at 5 mg/kg measured upto 24 hrs by LC-MS/MS analysis; format: ADME, organism-based; conditions: in vivo
# T1 sequence (P47989 whole entry): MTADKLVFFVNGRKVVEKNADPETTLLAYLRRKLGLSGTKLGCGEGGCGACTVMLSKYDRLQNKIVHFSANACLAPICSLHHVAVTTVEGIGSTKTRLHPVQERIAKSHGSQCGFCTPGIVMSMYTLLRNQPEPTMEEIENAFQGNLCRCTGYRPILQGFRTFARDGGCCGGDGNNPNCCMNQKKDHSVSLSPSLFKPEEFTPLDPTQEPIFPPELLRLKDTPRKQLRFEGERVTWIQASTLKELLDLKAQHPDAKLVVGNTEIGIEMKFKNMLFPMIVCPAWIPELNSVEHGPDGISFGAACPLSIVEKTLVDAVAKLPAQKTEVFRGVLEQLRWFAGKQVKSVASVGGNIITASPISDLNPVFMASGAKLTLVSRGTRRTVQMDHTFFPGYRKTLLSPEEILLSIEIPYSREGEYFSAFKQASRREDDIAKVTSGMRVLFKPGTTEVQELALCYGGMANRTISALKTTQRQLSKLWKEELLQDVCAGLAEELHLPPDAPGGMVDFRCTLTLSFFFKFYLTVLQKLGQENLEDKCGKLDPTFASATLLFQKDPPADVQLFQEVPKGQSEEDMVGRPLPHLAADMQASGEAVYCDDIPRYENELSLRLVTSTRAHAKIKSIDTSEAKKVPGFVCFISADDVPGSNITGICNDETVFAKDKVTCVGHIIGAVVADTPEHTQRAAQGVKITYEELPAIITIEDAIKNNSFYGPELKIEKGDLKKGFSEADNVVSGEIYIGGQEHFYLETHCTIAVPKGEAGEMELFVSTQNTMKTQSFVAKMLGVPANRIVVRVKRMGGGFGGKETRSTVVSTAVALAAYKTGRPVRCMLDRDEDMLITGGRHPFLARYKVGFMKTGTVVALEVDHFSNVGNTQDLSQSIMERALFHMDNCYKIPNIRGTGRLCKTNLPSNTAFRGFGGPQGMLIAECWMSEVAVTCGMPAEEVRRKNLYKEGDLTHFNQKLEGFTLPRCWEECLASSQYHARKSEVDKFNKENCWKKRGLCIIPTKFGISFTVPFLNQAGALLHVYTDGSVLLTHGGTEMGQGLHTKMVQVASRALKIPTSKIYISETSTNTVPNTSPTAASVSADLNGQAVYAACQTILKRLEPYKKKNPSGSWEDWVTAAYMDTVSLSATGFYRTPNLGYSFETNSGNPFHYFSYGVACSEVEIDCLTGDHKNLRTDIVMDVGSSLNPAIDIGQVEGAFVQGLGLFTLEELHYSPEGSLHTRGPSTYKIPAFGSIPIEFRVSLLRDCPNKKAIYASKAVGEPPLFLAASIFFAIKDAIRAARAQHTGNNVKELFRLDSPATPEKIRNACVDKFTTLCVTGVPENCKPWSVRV
smiles,measurement,setting,value
N#Cc1cc(-c2ccc(C(=O)O)c(O)c2)c2ncsc2c1,IC50,[1],101 nM
same,IC50,[2],3640 nM
CCc1oc2ccccc2c1C(=O)c1cc(Br)c(O)c(Br)c1 [BENZBROMARONE],inhibition (INH),[3],Not Active
same,Activity,[4],42.3%
same,AUC,[5],894000 ng·h/mL
N#Cc1cc(-c2ccc(C(=O)O)c(O)c2)c2sccc2c1,IC50,[1],133 nM
same,IC50,[2],444 nM
N#Cc1cc(-c2ccc(C(=O)O)cc2)c2occc2c1,IC50,[1],591 nM
same,IC50,[2],598 nM
O=C(O)c1ccc(-c2cc(C(F)(F)F)cc3ccoc23)cc1O,IC50,[1],388 nM
same,IC50,[2],3190 nM
CC(C)COc1ccc(-c2ccc(C(=O)O)c(O)c2)cc1C#N,IC50,[1],18 nM
same,IC50,[2],8300 nM
Cc1nc(-c2ccc(OCC(C)C)c(C#N)c2)sc1C(=O)O [FEBUXOSTAT],inhibition (INH),[6],Not Active
same,Activity,[7],6.61 µg·h/mL
same,Activity,[8],32.1 µg·h/mL
same,AUC,[9],478000 ng·h/mL
N#Cc1cc2c(c(-c3ccc(C(=O)O)c(O)c3)c1)OCC2,IC50,[1],46 nM
same,IC50,[2],352 nM
N#Cc1cc(-c2ccc(C(=O)O)c(O)c2)c2ccsc2c1,half-life,[10],1.86 h
same,Cmax,[11],2050 ng/mL
same,AUC(0-t) at 24 h,[12],2430 ng·h/mL
same,AUC(0-t) at 24 h,[13],902 ng·h/mL
same,clearance,[14],18.6 mL/min/kg
same,Vdss,[15],0.4 L/kg
same,bioavailability,[16],55.8%
N#Cc1cc2c(c(-c3ccc(C(=O)O)c(O)c3)c1)CCC2,IC50,[1],560 nM
same,IC50,[2],107 nM
N#Cc1cc(-c2ccc(C(=O)O)c(O)c2)c2cc[nH]c2c1,IC50,[1],27 nM
same,IC50,[2],> 10000 nM
CC(C)COc1ccc(-c2cccc(O)c2C(=O)O)cc1C#N,IC50,[1],> 10000 nM
same,IC50,[2],> 10000 nM
N#Cc1cc(-c2ccc(C(=O)O)c(O)c2)c2occ(C(F)(F)F)c2c1,IC50,[1],8 nM
same,IC50,[2],1650 nM
N#Cc1cc(-c2ccc(C(=O)O)c(O)c2)c2occc2c1,half-life,[10],3.45 h
same,Cmax,[11],6830 ng/mL
same,AUC(0-t) at 24 h,[12],44400 ng·h/mL
same,AUC(0-t) at 24 h,[13],6860 ng·h/mL
same,clearance,[14],2.4 mL/min/kg
same,Vdss,[15],0.399 L/kg
same,bioavailability,[16],131%
N#Cc1cc(-c2ccc(C(=O)O)c(O)c2)c2oc(C(F)(F)F)cc2c1,IC50,[1],347 nM
same,IC50,[2],104 nM
Cc1cc2cc(C#N)cc(-c3ccc(C(=O)O)c(O)c3)c2o1,IC50,[1],61 nM
same,IC50,[2],623 nM
N#Cc1cc(-c2ccc(C(=O)O)c(O)c2)c2ccoc2c1,IC50,[1],39 nM
same,half-life,[10],2.66 h
same,Cmax,[11],6550 ng/mL
same,AUC(0-t) at 24 h,[12],43200 ng·h/mL
same,AUC(0-t) at 24 h,[13],8530 ng·h/mL
same,clearance,[14],1.93 mL/min/kg
same,Vdss,[15],0.155 L/kg
same,bioavailability,[16],99.5%
COc1cc(-c2cc(C#N)cc3ccoc23)ccc1C(=O)O,IC50,[1],> 10000 nM
same,IC50,[2],3750 nM
N#Cc1cc(-c2ccc(C(=O)O)c(O)c2)c2oc(Cl)cc2c1,IC50,[2],37 nM
same,half-life,[10],3.05 h
same,Cmax,[11],3700 ng/mL
same,AUC(0-t) at 24 h,[12],28100 ng·h/mL
same,AUC(0-t) at 24 h,[13],5480 ng·h/mL
same,clearance,[14],2.77 mL/min/kg
same,Vdss,[15],0.4 L/kg
same,bioavailability,[16],93.9%
N#Cc1cccc(-c2ccc(C(=O)O)c(O)c2)c1,IC50,[1],37 nM
same,IC50,[2],2200 nM
